Results on 27 molecules are retold here after ChEMBL document CHEMBL5104091, “Pyridazine as a privileged structure: An updated review on anticancer activity of pyridazine containing bioactive molecules” (Eur J Med Chem, 2021).

Converted amounts (≈) assume the structure as drawn.

For one experiment, the system named is KB. Put plainly: Cytotoxicity against human KB cells assessed as cell growth inhibition. The class given is functional, cell-based.
Another experiment has as its system SK-MEL. Put plainly: Cytotoxicity against human SK-MEL cells assessed as cell growth inhibition. The class given is functional, cell-based.
The subject of a further experiment is MDA-MB-231. Put plainly: Antiproliferative activity against human MDA-MB-231 cells assessed as cell growth inhibition measured after 48 hrs by WST-1 assay. The class given is functional, cell-based. To be noted: MDA-MB-231, 48 h. A general note: Tetrazolium dyes change colour on reduction, which living cells bring about.
A further experiment concerns PC-3. The experiment in a line: Cytotoxicity against human PC-3 cells assessed as cell growth inhibition by MTT assay. The class given is functional, cell-based.
The test system of experiment [1] is HepG2. Put plainly: Antiproliferative activity against human HepG2 cells assessed as cell growth inhibition incubated for 48 hrs by MTT assay. The class given is functional, cell-based. Conditions: HepG2, 48 h.
In experiment [2] the test system is MCF7. The experiment in a line: Antiproliferative activity against human MCF7 cells assessed as cell growth inhibition incubated for 48 hrs by MTT assay. The class given is functional, cell-based. To be noted: MCF7, 48 h.
Experiment [3] concerns the target Hepatocyte growth factor receptor (Homo sapiens, UniProt P08581). Put plainly: Inhibition of MET (unknown origin) at 10 uM incubated for 60 mins by spectrophotometric analysis relative to control.
The species named for the next experiment is Homo sapiens. The experiment in a line: Inhibition of WNT (unknown origin) at 10 uM measured after 24 hrs by TOPFlash reporter gene assay. For orientation: Reporter assays use an easily measured gene product as a stand-in for the process of interest.
The next experiment deals with HCT-116. Put plainly: Cytotoxicity against human HCT-116 cells assessed as cell growth inhibition by colorimetric method. The class given is functional, cell-based.
For a further experiment, the system named is ECa-109 cell line. Put plainly: Antiproliferative activity against human EC109 cells assessed as inhibition of cell growth. The class given is functional, cell-based.
A short description of experiment [4]: In vivo inhibition of VEGFR2 in Swiss albino mouse implanted with mouse Ehrlich cells incubated for 24 hrs by immunohistochemical staining based analysis relative to control. The class given is functional.
Experiment [5] deals with Vascular endothelial growth factor receptor 3 (Homo sapiens) (UniProt P35916). The experiment in a line: Inhibition of VEGFR3 (unknown origin) at 10 uM by ELISA relative to control.
The next experiment deals with A549. The experiment in a line: Cytotoxicity against human A549 cells assessed as cell growth inhibition measured after 45 hrs by MTT assay. The class given is functional, cell-based. Conditions: A549, 45 h.
For experiment [6], the system named is HepG2. The experiment in a line: Cytotoxicity against human HepG2 cells assessed as cell growth inhibition measured after 45 hrs by MTT assay. The class given is functional, cell-based. Conditions: HepG2, 45 h.
The test system of the next experiment is Ca-Ski. The experiment in a line: Cytotoxicity against human Ca-Ski cells assessed as cell growth inhibition measured after 45 hrs by MTT assay. The class given is functional, cell-based.
The next experiment relates to SiHa. The experiment in a line: Cytotoxicity against human SiHa cells assessed as cell growth inhibition measured after 45 hrs by MTT assay. The class given is functional, cell-based.
The subject of the next experiment is A498. The experiment in a line: Cytotoxicity against human A498 cells assessed as cell growth inhibition measured after 45 hrs by MTT assay. The class given is functional, cell-based. Conditions: A498, 45 h.
For experiment [7], the system named is MCF7. The experiment in a line: Cytotoxicity against human MCF7 cells assessed as cell growth inhibition by colorimetric method. The class given is functional, cell-based.
A short description of experiment [8]: Inhibition of tyrosine kinase (unknown origin). The arrangement: species or system Homo sapiens.
The subject of experiment [9] is MCF7. The experiment in a line: Antiproliferative activity against human MCF7 cells assessed as cell growth inhibition. The class given is functional, cell-based.
In experiment [10] the target is Vascular endothelial growth factor receptor 2 (Homo sapiens, UniProt P35968). The experiment in a line: Inhibition of VEGFR2 (unknown origin) using poly (Glu,Tyr) 4:1 as substrate measured after 5 mins in presence of ATP by ELISA method.
The target in experiment [11] is Poly [ADP-ribose] polymerase 1 (Homo sapiens, UniProt P09874). Put plainly: Displacement of [125I]KX1 from PARP1 in human OVCAR-8 cells incubated for 1 hr by wizard gamma counter analysis. The class given is cell-based. In general terms: In a radioligand displacement assay an active substance lowers the binding of a labelled ligand.
Experiment [12] concerns HepG2. Put plainly: Antiproliferative activity against human HepG2 cells assessed as cell growth inhibition incubated for 24 hrs by MTT assay. The class given is functional, cell-based. Conditions: HepG2, 24 h.
The test system of experiment [13] is MCF7. Put plainly: Antiproliferative activity against human MCF7 cells assessed as cell growth inhibition incubated for 24 hrs by MTT assay. The class given is functional, cell-based. To be noted: MCF7, 24 h.
In a further experiment the test system is P815. Put plainly: Cytotoxicity against mouse P815 cells assessed as cell growth inhibition measured after 48 hrs by MTT assay. The class given is functional, cell-based. To be noted: P815, 48 h.
Experiment [14] relates to MCF7. Put plainly: Cytotoxicity against human MCF7 cells assessed as cell growth inhibition measured after 48 hrs by MTT assay. The class given is functional, cell-based. Conditions: MCF7, 48 h.
The test system of the next experiment is MCF-12A. The experiment in a line: Antiproliferative activity against human MCF-12A cells assessed as cell growth inhibition. The class given is functional, cell-based.
For experiment [15], the system named is HepG2. Put plainly: Cytotoxicity against human HepG2 cells assessed as cell growth inhibition after 48 hrs by SRB assay. The class given is functional, cell-based. To be noted: HepG2, 48 h.

Chain of Poly [ADP-ribose] polymerase 1 (P09874 whole entry): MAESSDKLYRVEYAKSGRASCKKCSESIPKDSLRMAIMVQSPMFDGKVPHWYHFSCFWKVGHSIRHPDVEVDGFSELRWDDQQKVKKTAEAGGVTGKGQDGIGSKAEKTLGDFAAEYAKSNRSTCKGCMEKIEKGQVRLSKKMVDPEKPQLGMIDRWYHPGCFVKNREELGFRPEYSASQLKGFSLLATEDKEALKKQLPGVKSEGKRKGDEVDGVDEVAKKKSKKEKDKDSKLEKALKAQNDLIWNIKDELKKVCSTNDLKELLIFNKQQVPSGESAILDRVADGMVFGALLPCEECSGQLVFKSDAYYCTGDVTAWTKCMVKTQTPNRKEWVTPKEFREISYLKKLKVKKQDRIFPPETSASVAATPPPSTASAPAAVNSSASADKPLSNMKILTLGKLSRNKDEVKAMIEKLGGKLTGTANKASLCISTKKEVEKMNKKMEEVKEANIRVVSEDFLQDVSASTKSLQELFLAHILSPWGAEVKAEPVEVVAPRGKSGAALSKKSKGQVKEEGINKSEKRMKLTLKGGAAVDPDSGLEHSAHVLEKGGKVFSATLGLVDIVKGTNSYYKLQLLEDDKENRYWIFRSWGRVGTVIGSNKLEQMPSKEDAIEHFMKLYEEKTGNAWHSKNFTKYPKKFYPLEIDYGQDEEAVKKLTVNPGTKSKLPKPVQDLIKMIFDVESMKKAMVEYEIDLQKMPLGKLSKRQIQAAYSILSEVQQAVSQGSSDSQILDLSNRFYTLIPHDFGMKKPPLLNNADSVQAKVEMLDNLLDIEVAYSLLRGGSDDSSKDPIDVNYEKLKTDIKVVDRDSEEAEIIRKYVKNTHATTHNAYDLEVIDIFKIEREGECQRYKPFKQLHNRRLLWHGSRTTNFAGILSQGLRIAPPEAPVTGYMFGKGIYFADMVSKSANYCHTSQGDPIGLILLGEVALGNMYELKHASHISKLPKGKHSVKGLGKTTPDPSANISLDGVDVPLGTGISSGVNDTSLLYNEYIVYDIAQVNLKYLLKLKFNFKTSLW
Chain of Vascular endothelial growth factor receptor 2 (P35968 whole entry): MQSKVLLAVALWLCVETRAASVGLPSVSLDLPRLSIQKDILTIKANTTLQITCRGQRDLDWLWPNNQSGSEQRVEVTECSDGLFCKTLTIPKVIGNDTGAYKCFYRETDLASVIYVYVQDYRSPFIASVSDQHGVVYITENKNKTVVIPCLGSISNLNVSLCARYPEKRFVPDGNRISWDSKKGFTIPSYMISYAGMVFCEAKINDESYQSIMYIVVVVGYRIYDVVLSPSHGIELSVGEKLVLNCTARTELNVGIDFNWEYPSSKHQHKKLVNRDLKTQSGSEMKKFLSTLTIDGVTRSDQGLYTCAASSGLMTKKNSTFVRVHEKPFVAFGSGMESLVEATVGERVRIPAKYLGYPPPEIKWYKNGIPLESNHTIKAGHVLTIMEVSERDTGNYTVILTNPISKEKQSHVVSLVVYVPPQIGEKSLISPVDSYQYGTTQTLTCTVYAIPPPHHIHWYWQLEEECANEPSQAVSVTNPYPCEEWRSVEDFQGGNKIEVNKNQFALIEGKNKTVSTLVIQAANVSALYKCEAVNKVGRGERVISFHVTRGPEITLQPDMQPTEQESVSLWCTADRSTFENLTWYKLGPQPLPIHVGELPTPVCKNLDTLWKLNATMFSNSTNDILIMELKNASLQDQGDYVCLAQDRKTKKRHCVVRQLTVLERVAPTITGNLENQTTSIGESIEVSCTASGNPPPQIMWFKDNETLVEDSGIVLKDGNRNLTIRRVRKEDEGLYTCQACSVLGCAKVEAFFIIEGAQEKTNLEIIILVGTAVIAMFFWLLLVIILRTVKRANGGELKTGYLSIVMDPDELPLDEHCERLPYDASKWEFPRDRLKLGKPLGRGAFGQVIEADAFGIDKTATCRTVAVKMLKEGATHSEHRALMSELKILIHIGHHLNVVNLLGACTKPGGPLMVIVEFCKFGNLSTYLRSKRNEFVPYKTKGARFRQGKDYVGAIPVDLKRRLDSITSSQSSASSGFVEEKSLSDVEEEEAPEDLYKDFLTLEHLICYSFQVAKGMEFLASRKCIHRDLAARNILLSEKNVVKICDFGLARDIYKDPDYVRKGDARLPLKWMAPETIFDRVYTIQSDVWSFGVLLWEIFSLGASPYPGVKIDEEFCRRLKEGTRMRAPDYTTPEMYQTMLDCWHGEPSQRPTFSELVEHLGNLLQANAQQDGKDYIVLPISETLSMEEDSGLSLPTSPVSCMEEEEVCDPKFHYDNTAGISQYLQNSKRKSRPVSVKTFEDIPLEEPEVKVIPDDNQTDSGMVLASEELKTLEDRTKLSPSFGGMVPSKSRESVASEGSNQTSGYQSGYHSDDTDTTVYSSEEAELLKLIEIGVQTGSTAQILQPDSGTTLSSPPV
Chain of Hepatocyte growth factor receptor (P08581 whole entry): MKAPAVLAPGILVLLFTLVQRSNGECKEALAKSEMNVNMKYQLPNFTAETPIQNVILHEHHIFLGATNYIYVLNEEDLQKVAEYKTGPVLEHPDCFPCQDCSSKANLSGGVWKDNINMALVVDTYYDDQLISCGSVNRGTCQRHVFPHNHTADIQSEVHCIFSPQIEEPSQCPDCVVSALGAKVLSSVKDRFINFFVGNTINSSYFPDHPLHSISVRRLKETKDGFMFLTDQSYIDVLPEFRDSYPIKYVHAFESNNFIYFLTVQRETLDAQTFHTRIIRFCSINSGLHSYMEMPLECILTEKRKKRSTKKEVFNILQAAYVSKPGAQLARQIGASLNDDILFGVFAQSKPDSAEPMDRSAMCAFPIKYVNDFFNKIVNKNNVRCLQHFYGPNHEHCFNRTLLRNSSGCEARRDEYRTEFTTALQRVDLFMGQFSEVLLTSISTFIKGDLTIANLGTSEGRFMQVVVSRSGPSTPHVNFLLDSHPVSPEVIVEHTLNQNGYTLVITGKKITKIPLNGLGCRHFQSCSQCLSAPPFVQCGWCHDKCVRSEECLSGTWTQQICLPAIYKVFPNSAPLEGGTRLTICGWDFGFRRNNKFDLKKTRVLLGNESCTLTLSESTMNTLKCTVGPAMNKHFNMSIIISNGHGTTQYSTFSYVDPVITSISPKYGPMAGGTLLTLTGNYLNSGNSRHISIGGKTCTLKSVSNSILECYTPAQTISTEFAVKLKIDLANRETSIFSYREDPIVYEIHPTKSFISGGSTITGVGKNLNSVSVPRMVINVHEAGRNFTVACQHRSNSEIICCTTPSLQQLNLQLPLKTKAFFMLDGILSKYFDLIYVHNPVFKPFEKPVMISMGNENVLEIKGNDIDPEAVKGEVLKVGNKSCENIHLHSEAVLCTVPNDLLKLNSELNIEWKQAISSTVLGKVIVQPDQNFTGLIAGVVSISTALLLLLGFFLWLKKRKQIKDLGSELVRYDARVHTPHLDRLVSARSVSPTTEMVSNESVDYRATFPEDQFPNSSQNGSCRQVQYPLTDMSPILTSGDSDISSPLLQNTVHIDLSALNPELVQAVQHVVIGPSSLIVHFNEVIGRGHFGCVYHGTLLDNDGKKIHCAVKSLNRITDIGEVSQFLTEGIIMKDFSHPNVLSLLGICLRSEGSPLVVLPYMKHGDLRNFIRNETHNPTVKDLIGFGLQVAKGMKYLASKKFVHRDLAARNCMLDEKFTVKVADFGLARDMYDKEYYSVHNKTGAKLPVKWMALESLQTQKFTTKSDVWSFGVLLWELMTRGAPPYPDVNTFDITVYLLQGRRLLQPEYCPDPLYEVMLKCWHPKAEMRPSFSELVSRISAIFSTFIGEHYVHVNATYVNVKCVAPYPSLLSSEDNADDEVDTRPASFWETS
Chain of Vascular endothelial growth factor receptor 3 (Homo sapiens) (P35916 whole entry): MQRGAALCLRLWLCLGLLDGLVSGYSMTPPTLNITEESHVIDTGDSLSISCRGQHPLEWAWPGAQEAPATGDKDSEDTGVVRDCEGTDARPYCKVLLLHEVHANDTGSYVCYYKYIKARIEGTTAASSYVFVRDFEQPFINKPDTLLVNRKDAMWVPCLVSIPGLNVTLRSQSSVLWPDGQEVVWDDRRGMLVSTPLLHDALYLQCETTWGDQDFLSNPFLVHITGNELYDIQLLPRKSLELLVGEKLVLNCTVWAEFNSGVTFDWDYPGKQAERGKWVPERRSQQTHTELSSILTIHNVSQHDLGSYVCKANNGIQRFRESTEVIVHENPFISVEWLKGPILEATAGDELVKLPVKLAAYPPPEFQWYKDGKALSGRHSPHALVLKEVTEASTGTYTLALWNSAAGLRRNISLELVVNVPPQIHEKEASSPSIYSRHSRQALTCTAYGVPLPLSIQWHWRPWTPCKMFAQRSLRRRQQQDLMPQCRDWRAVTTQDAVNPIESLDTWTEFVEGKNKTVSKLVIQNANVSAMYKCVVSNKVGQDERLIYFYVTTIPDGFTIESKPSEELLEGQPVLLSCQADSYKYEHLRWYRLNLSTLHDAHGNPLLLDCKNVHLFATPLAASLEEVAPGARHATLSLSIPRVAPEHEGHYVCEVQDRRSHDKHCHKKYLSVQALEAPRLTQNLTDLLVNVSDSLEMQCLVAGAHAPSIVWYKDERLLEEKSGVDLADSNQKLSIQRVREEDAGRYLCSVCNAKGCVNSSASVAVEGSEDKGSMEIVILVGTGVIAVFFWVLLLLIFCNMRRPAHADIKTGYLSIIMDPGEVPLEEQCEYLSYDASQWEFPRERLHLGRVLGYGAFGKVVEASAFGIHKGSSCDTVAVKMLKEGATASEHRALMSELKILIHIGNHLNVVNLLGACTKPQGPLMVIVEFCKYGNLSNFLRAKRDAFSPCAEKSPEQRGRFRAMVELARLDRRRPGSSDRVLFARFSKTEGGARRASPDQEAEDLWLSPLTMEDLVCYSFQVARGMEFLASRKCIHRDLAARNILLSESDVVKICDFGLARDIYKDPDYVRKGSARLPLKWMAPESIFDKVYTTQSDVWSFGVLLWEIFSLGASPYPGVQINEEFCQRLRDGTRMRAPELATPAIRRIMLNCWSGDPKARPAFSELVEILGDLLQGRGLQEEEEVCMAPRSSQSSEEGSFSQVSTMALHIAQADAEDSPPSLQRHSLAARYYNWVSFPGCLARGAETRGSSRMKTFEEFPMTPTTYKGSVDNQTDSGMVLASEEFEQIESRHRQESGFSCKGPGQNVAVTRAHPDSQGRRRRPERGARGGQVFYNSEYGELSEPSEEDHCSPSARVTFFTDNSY

The IC50 is the concentration that gives 50% inhibition. As for `O=c1c(CNc2ccccc2)cc(OS(=O)(=O)C(F)(F)F)nn1Cc1ccccc1`, the IC50 in the experiment on KB amounted to 2.8 µM; in the experiment with SK-MEL, 3.3 µM.
In the case of `O=C1Nc2ccccc2/C1=N/Nc1nnc(-c2ccccc2)c2ccccc12`, the concentration for half-maximal inhibition (IC50) in the experiment on MDA-MB-231 was determined as 12 µM.
Regarding `NNc1nnc(-c2ccc(Oc3ccccc3)cc2)c2ccccc12`, the IC50 in the experiment with PC-3 came to 12.2 µg/mL (≈ 37.2 µM).
As to `O=C1Nc2ccc(F)cc2/C1=N/Nc1nnc(-c2ccc(Cl)cc2)c2ccccc12`, the concentration for half-maximal inhibition (IC50) in the experiment with MDA-MB-231 stood at 12 µM.
Take `Sc1nnc(Cc2ccccc2)c2ccccc12`: the IC50 in the experiment with PC-3 came out at 8.6 µg/mL (≈ 34.1 µM).
Regarding `COc1ccc(-c2cc(Cc3ccc(Cl)cc3)c(=O)[nH]n2)cc1`, the IC50 is 14.8 µM in the experiment on HepG2 [1] and > 37 µM in the experiment on MCF7 [2].
A word on the inhibition: it is the drop in the measured response relative to a control, in per cent. For the molecule `CC(=O)c1ccc(-c2ccc(=O)n(Cc3nc(-c4ncccn4)no3)n2)s1`, the inhibition in [3] was found to be 17%; in the experiment filed under Homo sapiens, 19%.
For the molecule `O=c1c(CNc2ccccc2)cc(-c2ccccc2CO)nn1Cc1ccccc1`, the values for the IC50 with KB and in the experiment on SK-MEL were 2.3 µM and 4.2 µM, respectively.
As for `COc1ccc(-c2cc(Cc3ccccc3O)c(=O)[nH]n2)cc1`, the values for the half-inhibitory concentration (IC50) with HepG2 [1] and in the experiment with MCF7 [2] were 26.4 µM and > 37 µM, respectively.
Consider `O=C1Nc2ccc(Br)cc2/C1=N/Nc1nnc(-c2ccc(Cl)cc2)c2ccccc12`, for which, in the experiment on MDA-MB-231, the IC50 stood at 12 µM.
For the molecule `Cc1ccc(-c2cc(-c3c(-c4ccccc4)[nH]c4ccccc34)c(Nc3ccc(/N=N/c4c(C)nc(N)nc4C)cc3)nn2)cc1C`, the concentration for half-maximal inhibition (IC50) in the experiment with HCT-116 came to 2.1 µg/mL (≈ 3.41 µM).
On to `O=c1[nH]cc(F)c(=O)[nH]1` [FLUOROURACIL], for which the half-inhibitory concentration (IC50) in the experiment with MDA-MB-231 came to 29.4 µM; in the experiment with ECa-109 cell line, 14.4 µM.
In the case of `Cc1ccc(NC(=O)c2ccc(CN3CCN(C)CC3)cc2)cc1Nc1nccc(-c2cccnc2)n1` [IMATINIB], in [4], the “inhibition (INH)” value worked out at 30%. In [5], this molecule yielded an inhibition of 89.6%.
`O=C1Nc2ccc(Cl)cc2/C1=N/Nc1nnc(-c2ccccc2)c2ccccc12`: the IC50 in the experiment with MDA-MB-231 is 12 µM.
`CC(C)c1ccc(OCC(=O)NNc2ccc(Cl)nn2)c(C(C)C)c1`: the IC50 is 6.6 µM with A549; 6.9 µM in the experiment on HepG2 [6]; 7.5 µM with Ca-Ski; 7.8 µM with SiHa; 6.8 µM in the experiment with A498.
Consider `CC(=O)C(=NNc1ccc(Nc2nnc(-c3ccc(C)c(C)c3)cc2-c2c(-c3ccccc3)[nH]c3ccccc23)cc1)C(C)=O`, for which, in the experiment with MCF7 [7], the IC50 was found to be 2.2 µg/mL (≈ 3.71 µM).
Regarding `CC1=Nc2c(nnc3ccc(C)cc23)C(=O)NN1`, the half-maximal inhibitory concentration (IC50) in experiment [8] was found to be 0.22 µM; with MCF7 [9], 0.049 µM.
Turning to `O=C(NNc1nn2cnnc2c2ccccc12)Nc1ccccc1`, in experiment [10], the half-inhibitory concentration (IC50) is 0.31 µM.
Regarding `S=C(NNc1nn2cnnc2c2ccccc12)Nc1ccccc1`, the IC50 in experiment [10] came to 0.91 µM.
In [11], `COC1CCCN(C(=O)c2cc(Cc3n[nH]c(=O)c4ccccc34)ccc2F)CC1` (stereo not drawn) gave an IC50 of 0.0047 µM.
With `COc1ccc(NC(=O)CSc2nnc(-c3ccccc3)c3ccccc23)cc1`, the IC50 with ECa-109 cell line (read-out: IC50) stood at 8.13 µM.
As to `O=C1Nc2ccc(Br)cc2/C1=N/Nc1nnc(-c2ccccc2)c2ccccc12`, in the experiment on MDA-MB-231, the IC50 was 12 µM.
Take `Cc1cc(-c2ccc(OCC(=O)NNc3nnc(COc4ccc(-c5ccc(Cl)c(C)c5)nn4)o3)nn2)ccc1Cl`: the half-maximal inhibitory concentration (IC50) in the experiment with HepG2 [12] is 8.67 µM; in the experiment on MCF7 [13] it was 9.41 µM.
Regarding `Cc1n[nH]c(=O)cc1Cc1cc2cc(C(C)C)ccc2o1`, the IC50 in the experiment with P815 was 35 µM; in the experiment on MCF7 [14] it was 14.5 µM.
With `COC1CCN(C(=O)c2cc(Cc3n[nH]c(=O)c4ccccc34)ccc2F)C1` (stereo not drawn), the half-inhibitory concentration (IC50) in experiment [11] was 0.0042 µM.
Take `Cc1ccc2nnc(C(=O)NNC(N)=S)c(N)c2c1`: the IC50 in the experiment on MCF-12A was determined as 64.2 µM; in experiment [8], 0.34 µM; in the experiment with MCF7 [9], 0.11 µM.
Turning to `COC(=O)CNC(=O)Cn1nc(Cc2ccccc2)c2ccccc2c1=O`, the IC50 in the experiment with HepG2 [15] was 5.7 µg/mL (≈ 15.6 µM).
